Measured values from ChEMBL document CHEMBL1136999, “Discovery of novel phosphonate derivatives as hepatitis C virus NS3 protease inhibitors” (Bioorg Med Chem Lett, 2009).

Key:
Hepatitis C virus = experiment: Antiviral activity against HCV in human HuH7 cells by replicon assay; type: functional, organism-based, Hepacivirus hominis; details: Huh-7
[1] = Cytotoxicity against human HuH7 cells; type: cell-based, Huh-7
[2] = Inhibition of HCV NS3 protease; set-up: species or system Hepacivirus hominis
[3] = Apparent systemic clearance in dog at 1.1 mg/kg, iv relative to liver blood flow; type: ADME, organism-based, Canis lupus familiaris; set-up: dose 1.1 mg/kg, route intravenous; details: in vivo
[4] = Oral bioavailability in dog at 2.7 mg/kg; type: ADME, organism-based, Canis lupus familiaris; details: in vivo
[5] = Apparent permeability from apical to basolateral side in human Caco-2 cells; type: ADME, cell-based

C=CC1C[C@]1(NC(=O)[C@@H]1C[C@@H](Oc2cc(-c3csc(NC(C)C)n3)nc3cc(OC)ccc23)CN1C(=O)[C@@H](NC(=O)OC1CCCC1)C(C)(C)C)P(=O)(O)OCC (stereo partly specified)
EC50 (Hepatitis C virus): 360 nM
CC50 [1]: > 50000 nM
IC50 [2]: 7 nM

C=CC1C[C@]1(NC(=O)[C@@H]1C[C@@H](Oc2cc(-c3csc(NC(C)C)n3)nc3cc(OC)ccc23)CN1C(=O)[C@@H](NC(=O)OC1CCCC1)C(C)(C)C)P(=O)(OCOC(=O)OCC)OCOC(=O)OCC (stereo partly specified)
EC50 (Hepatitis C virus): 39 nM
clearance [3]: 28.3 mL/min/kg
IC50 [2]: 280 nM

C=CC1C[C@]1(NC(=O)[C@@H]1C[C@@H](Oc2cc(-c3csc(NC(C)C)n3)nc3cc(OC)ccc23)CN1C(=O)[C@@H](NC(=O)OC1CCCC1)C(C)(C)C)P(=O)(O)O (stereo partly specified)
EC50 (Hepatitis C virus): 92 nM
CC50 [1]: > 50000 nM
bioavailability [4]: 1%
Papp A→B [5]: 0.2 ×10⁻⁶ cm/s
IC50 [2]: 0.9 nM

C=CC1C[C@]1(NC(=O)[C@@H]1C[C@@H](Oc2cc(-c3csc(NC(C)C)n3)nc3cc(OC)ccc23)CN1C(=O)[C@@H](NC(=O)OC1CCCC1)C(C)(C)C)C(=O)O (stereo partly specified)
EC50 (Hepatitis C virus): 6 nM
CC50 [1]: > 50000 nM
IC50 [2]: 3 nM

C=CC1C[C@]1(NC(=O)[C@@H]1C[C@@H](Oc2cc(-c3csc(NC(C)C)n3)nc3cc(OC)ccc23)CN1C(=O)[C@@H](NC(=O)OC1CCCC1)C(C)(C)C)P(=O)(OCOC(=O)OCC1CC1)OCOC(=O)OCC1CC1 (stereo partly specified)
EC50 (Hepatitis C virus): 41 nM
IC50 [2]: 85 nM
